Data on 15 compounds can be found in patent US7767648B2, “Tissue specific prodrugs” (priority 2000, dated 2010).

Numbered stars: 1 amine (or outer) side, 2 acyl side, 3 side chain; on linkers, the order of the positions; unused ones are H or OH. Square brackets hold non-standard residues; d marks the D form. Peptide text beside a SMILES is read from it. γGlu = O=C(O)[C@H](CCC(=O)[*:2])N[*:1]

A word on the share remaining: it is what is left of the initial amount, in per cent.

A short description of data set [1]: Cytotoxic activity of thapsigargin and its debutanoyl derivative. In kind it is cell-based. Conditions: cell line not stated. The protocol: The starting material for all the synthesized analogs is 8-O-debutanoylthapsigargin, which is easily available by triethylamine catalyzed methanolysis of thapsigargin. Removal of the butanoyl results in loss of cytotoxic activity with an LD50 of >50 μM compared to <100 nM for thapsigargin. Anhydrides of dicarboxylic acids of various lengths afforded analogs in which the acyl group attached to the O-8 ended in a free carboxylic acid. A dicyclohexylcarbodiimide (DCCI) promoted coupling of a 2,4-diaminoarene to the carboxylic acid analogs affords the derivatives in which contain a primary aromatic amine as a potential coupling point for additional moeities.

Data set [2] is described as follows: Stability of PSMA substrates in human plasma, 18 hour incubation, HPLC. In kind it is in vitro ADME. Conditions: for remaining at 18 h / % APA-Glu or -Asp: 18 hour incubation in human plasma; for remaining at 18 h: HPLC peak area of starting material over all peaks, read-out: % Prodrug Remaining; for % APA-Glu or -Asp: hydrolysis of substrate to APA-Asp or APA-Glu; for stability in serum (in words): species not stated. An excerpt:
(§1) In order that the prodrugs can be administered systemically via the blood, their stability in sera must be sufficiently high to avoid hydrolysis or other degradative processes which may occur prior to the prodrugs reaching their target tissues. In addition to GGH activity, a human blood plasma glutamate carboxypeptidase (PGCP) that has significant sequence homology to PSMA and glutamate carboxypeptidase activity has been identified. Therefore, to assay hydrolysis by GGH and other serum carboxypeptidases like PGCP, the APA-Glu*Glu*Glu*Glu*Asp, APA-Glu*Glu*Glu*Glu*Gln, and APA-Glu*Glu*Glu*Glu*Glu substrates were incubated in human and mouse plasma and hydrolysis determined by HPLC analysis after an 18-hour incubation, as shown in Table 3. As noted, GGH efficiently hydrolyzes poly-γ-glutamate chains as well as poly-γ-glutamated folate and methotrexate. GGH, however, is unable to hydrolyze α-linked peptides.
(§2) In Tables 1-3, to simplify identification of the type of amino acid linkages employed, α-linkages are denoted by a hyphen (for example, Glu-Glu) and all side-chain linkages are denoted by a star (for example, Glu*Glu). The column labeled “% PSMA Hydrolysis” refers to the percentage of hydrolysis of a substrate to APA-Asp or to APS-Glu by purified PSMA. The column labeled “% APA-Asp or -Glu” refers to the percentage of hydrolysis of substrate to APA-Asp or APA-Glu. The column labeled “% Prodrug Remaining” refers to the area of the HPLC peak attributable to starting material divided by the areas of HPLC peaks attributable to starting material, intermediate products, and final products. […] “ND” means “not determined,” in that the experiment was not performed.

A short description of data set [3]: Stability of PSMA substrates in mouse plasma, 18 hour incubation, HPLC. Format: in vitro ADME. Conditions: for % APA-Glu or -Asp: 18 hour incubation in mouse plasma.
Source text: as §1, §2

Data set [4] concerns the target PSMA (Homo sapiens, UniProt Q04609). In words: Hydrolysis of methotrexate analog substrates by purified PSMA (HPLC). Conditions: for % PSMA hydrolysis 24 h / % PSMA hydrolysis 48 h: Table 3, hydrolysis of substrate to APA-Asp or APA-Glu by purified PSMA. In kind it is biochemical. The protocol:
The extent to which various peptide substrates are hydrolyzed by PSMA was determined by synthesizing a series of methotrexate analogs including the 4-N[N-2,4-diamino-6-pteridinyl-methyl)-N-methylamino-benzoate] (APA) portion of methotrexate coupled to a variety of peptides. Poly-glutamated methotrexate is available from Schirks Laboratories in Jona, Switzerland.
A series of α-linked peptides were investigated for PSMA hydrolysis. […] In Tables 1-3, to simplify identification of the type of amino acid linkages employed, α-linkages are denoted by a hyphen (for example, Glu-Glu) and all side-chain linkages are denoted by a star (for example, Glu*Glu).
Substrate specificity for the pteroyl poly-γ-glutamyl carboxypeptidase (folate hydrolase) activity of PSMA was determined by synthesizing a series of γ-linked methotrexate analogs and assaying them for hydrolysis by PSMA.
as §2

The test system of data set [5] is TSU cancer cells. In words: Loss of clonogenic survival of TSU cancer cells after exposure to methotrexate analogs. Format: cell-based. Conditions: 48 hours of exposure. The source says:
A number of methotrexate analogs were studied for their effect on clonogenic survival of TSU cancer cells. One such analog is L-aspartic acid, N-[4-[[(2,4-diamino-5-ethyl-6-quiazolinyl)methyl]amino]benzoyl]-sesquihydrate, also known as NSC 184692, available from the NCI Developmental Therapeutics Branch. Another compound is L-aspartic acid, N-[2-chloro-5-[[(2,4-diamino-5-methyl-6-quiazolinyl)methyl]amino]benzoyl]-dihydrate, also known as NSC 132483. Another compound is L-aspartic acid, N-[2-chloro-4-[[(2,4-diamino-6-pteridinyl)methyl]amino]benzoyl]-monohydrate, also known as NSC 134033.
The loss of clonogenic survival following treatment of TSU cancer cells with NSC 184692 and 132483 has been investigated after 48 hours of exposure, and the results are listed in Table 4.

Data set [6] concerns prostate cancer cells. In words: Induction of apoptotic death of prostate cancer cells. In kind it is cell-based. Conditions: cell-proliferation independent. The protocol: The TG analog was synthesized by coupling the primary amine of 12ADT to the γ-carboxyl of glutamate, leaving the α-carboxyl of glutamate free to link to other amino acids, as shown in FIG. 2. The 12-ADT*Glu is a potent, cell-proliferation independent inducer of the apoptotic death of prostate cancer cells (LD50 is approximately 50 nM). The corresponding analog consisting of 12-ADT linked to the α-carboxyl of glutamate (that is, 12ADT-Glu) is also a suitable analog, as shown in FIG. 2. The prodrug containing 12ADT*Glu coupled to the longer amino acid chain (that is, 12ADT*Glu-Glu*Glu*Asp-Glu) can also be a suitable substrate. The 12ADT-Glu*Glu*Glu*Asp-Glu prodrug may also be cleaved by PSMA, which may cleave the last peptide bond in the absence of a free α-carboxyl. […] This analog can then be linked via either the α- or γ-carboxyl to a peptide chain.

Chain of PSMA (Q04609 whole entry): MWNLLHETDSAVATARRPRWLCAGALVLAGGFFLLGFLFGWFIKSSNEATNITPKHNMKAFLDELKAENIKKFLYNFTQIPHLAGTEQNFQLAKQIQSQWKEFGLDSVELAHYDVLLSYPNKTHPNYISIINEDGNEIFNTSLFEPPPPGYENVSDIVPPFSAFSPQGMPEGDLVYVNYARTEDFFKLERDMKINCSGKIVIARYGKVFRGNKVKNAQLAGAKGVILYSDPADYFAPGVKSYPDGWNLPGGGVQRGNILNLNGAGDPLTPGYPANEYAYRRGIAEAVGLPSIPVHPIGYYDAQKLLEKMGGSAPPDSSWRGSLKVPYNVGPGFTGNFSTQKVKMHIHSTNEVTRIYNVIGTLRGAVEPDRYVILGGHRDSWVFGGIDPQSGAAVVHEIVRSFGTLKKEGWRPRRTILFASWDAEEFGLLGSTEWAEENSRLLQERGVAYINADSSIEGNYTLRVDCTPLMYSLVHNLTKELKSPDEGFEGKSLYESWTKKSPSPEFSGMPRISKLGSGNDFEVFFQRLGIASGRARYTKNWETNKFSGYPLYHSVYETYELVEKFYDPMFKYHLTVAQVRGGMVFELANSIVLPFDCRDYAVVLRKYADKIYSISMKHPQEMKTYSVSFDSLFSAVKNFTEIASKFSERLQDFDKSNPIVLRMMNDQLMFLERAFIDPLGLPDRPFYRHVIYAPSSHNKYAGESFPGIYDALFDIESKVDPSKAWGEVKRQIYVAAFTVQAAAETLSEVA

On to `C/C=C(/C)C(=O)O[C@H]1C(C)=C2[C@H]([C@@H]1OC(=O)CCCCCCC)[C@@](C)(OC(C)=O)C[C@H](O)[C@@]1(O)[C@H]2OC(=O)[C@@]1(C)O` [8-O-debutanoylthapsigargin], for which the “LD50 (cytotoxic activity)” value in data set [1] is above 50 µM.

Regarding `CN(Cc1cnc2nc(N)nc(N)c2n1)c1ccc(C(=O)N[C@@H](CC(=O)O)C(=O)N[C@@H](CCC(=O)N[C@@H](CCC(=O)N[C@@H](CC(=O)O)C(=O)N[C@@H](CCC(=O)O)C(=O)O)C(=O)O)C(=O)O)cc1` [APA-Asp-Glu*Glu*Asp-Glu], in data set [2], the share remaining at 18 h is 100% and the “% APA-Glu or -Asp” value was 0%. In addition, the “% APA-Glu or -Asp” value in data set [3] came to 2%.

`CN(Cc1cnc2nc(N)nc(N)c2n1)c1ccc(C(=O)N[C@@H](CC(=O)O)C(=O)N[C@@H](CCC(=O)O)C(=O)O)cc1` [APA-Asp-Glu]: in data set [2], the amount remaining at 18 h was found to be 99% and the “% APA-Glu or -Asp” value is 1%. For the same compound, in data set [2] (18 hour incubation in human serum, HPLC), the “hydrolysis in human serum (in words)” value is “no significant hydrolysis”.

Turning to `CN(Cc1cnc2nc(N)nc(N)c2n1)c1ccc(C(=O)N[C@@H](CCC(=O)N[C@@H](CCC(=O)N[C@@H](CCC(=O)N[C@@H](CC(=O)O)C(=O)N[C@@H](CCC(N)=O)C(=O)O)C(=O)O)C(=O)O)C(=O)O)cc1` [APA-Glu*Glu*Glu*Asp-Gln], in data set [2], the fraction remaining at 18 h was determined as 76% and the “% APA-Glu or -Asp” value was determined as 13%.

For the compound `CN(Cc1cnc2nc(N)nc(N)c2n1)c1ccc(C(=O)N[C@@H](CCC(=O)N[C@@H](CCC(=O)N[C@@H](CCC(=O)N[C@@H](CC(=O)O)C(=O)N[C@@H](CCC(=O)O)C(=O)O)C(=O)O)C(=O)O)C(=O)O)cc1` [APA-Glu*Glu*Glu*Asp-Glu], in data set [2], the amount remaining at 18 h was found to be 57% and the “% APA-Glu or -Asp” value is recorded as 23%. Further, the “% APA-Glu or -Asp” value in data set [3] turned out to be 5%.

For `CN(Cc1cnc2nc(N)nc(N)c2n1)c1ccc(C(=O)N[C@@H](CCC(=O)N[C@@H](CCC(=O)N[C@@H](CCC(=O)N[C@@H](CCC(=O)N[C@@H](CCC(N)=O)C(=O)O)C(=O)O)C(=O)O)C(=O)O)C(=O)O)cc1` [APA-Glu*Glu*Glu*Glu*Gln], in data set [4], the “% PSMA hydrolysis 24 h” value is 97% and the “% PSMA hydrolysis 48 h” value worked out at 100%. Besides, the “hydrolysis by PSMA (in words)” value in data set [4] (text summary of the tables) is recorded as “to a greater extent after 24 hours than any of the γ-linked dipeptide analogs”. For the same compound, in data set [2], the share remaining at 18 h amounted to 26% and the “% APA-Glu or -Asp” value is 6%. Further, in data set [3], the “% APA-Glu or -Asp” value is on record as 62%.

Consider `CN(Cc1cnc2nc(N)nc(N)c2n1)c1ccc(C(=O)N[C@@H](CCC(=O)N[C@@H](CCC(=O)N[C@@H](CCC(=O)N[C@@H](CCC(=O)N[C@@H](CCC(=O)O)C(=O)O)C(=O)O)C(=O)O)C(=O)O)C(=O)O)cc1` [APA-Glu*Glu*Glu*Glu*Glu, reference compound], for which, in data set [4], the “% PSMA hydrolysis 24 h” value was 96% and the “% PSMA hydrolysis 48 h” value came to 100%. Further, in data set [2], the share remaining at 18 h was 11% and the “% APA-Glu or -Asp” value was found to be 11%. In addition, in data set [3], the “% APA-Glu or -Asp” value turned out to be 68%.

Regarding `N[C@@H](CC(=O)O)C(=O)N[C@@H](CCC(=O)N[C@@H](CCC(=O)N[C@@H](CC(=O)O)C(=O)N[C@@H](CCC(=O)O)C(=O)O)C(=O)O)C(=O)O` [Asp-Glu*Glu*Asp-Glu] (H-D[γGlu][γGlu]DE-OH; C-terminus assumed), in data set [2] (human plasma), the “stability to hydrolysis in human plasma (in words)” value was “completely stable to hydrolysis”. Also, in data set [3] (mouse plasma), the “stability to hydrolysis in mouse plasma (in words)” value is listed as “completely stable to hydrolysis”.

Take `NC(=O)CC[C@H](NC(=O)[C@H](CC(=O)O)NC(=O)CC[C@H](NC(=O)CC[C@H](NC(=O)CC[C@H](N)C(=O)O)C(=O)O)C(=O)O)C(=O)O` [Glu*Glu*Glu*Asp-Gln] ({γGlu-γGlu-γGlu}-Asp-Gln-OH; C-terminus assumed): in data set [2], the “stability in serum (in words)” value is “high stability in serum”.

As for `N[C@@H](CCC(=O)N[C@@H](CCC(=O)N[C@@H](CCC(=O)N[C@@H](CC(=O)O)C(=O)N[C@@H](CCC(=O)O)C(=O)O)C(=O)O)C(=O)O)C(=O)O` [Glu*Glu*Glu*Asp-Glu] ({γGlu-γGlu-γGlu}-Asp-Glu-OH; C-terminus assumed), the “stability in serum (in words)” value in data set [2] was “high stability in serum”.

On to `Cc1c(CNc2ccc(Cl)c(C(=O)N[C@@H](CC(=O)O)C(=O)O)c2)ccc2nc(N)nc(N)c12.O.O` [NSC 132483, L-aspartic acid, N-[2-chloro-5-[[(2,4-diamino-5-methyl-6-quiazolinyl)methyl]amino]benzoyl]-dihydrate], for which the “Loss of clonogenic survival” value in data set [5] (0.01 μmolar) came to 0%; in data set [5] (0.05 μmolar) it was 0%; in data set [5] (0.1 μmolar), 14%; in data set [5] (0.5 μmolar), 39%; in data set [5] (1 μmolar), 50%; in data set [5] (5 μmolar), 78%.

Regarding `CCc1c(CNc2ccc(C(=O)N[C@@H](CC(=O)O)C(=O)O)cc2)ccc2nc(N)nc(N)c12.CCc1c(CNc2ccc(C(=O)N[C@@H](CC(=O)O)C(=O)O)cc2)ccc2nc(N)nc(N)c12.O.O.O` [NSC 184692, L-aspartic acid, N-[4-[[(2,4-diamino-5-ethyl-6-quiazolinyl)methyl]amino]benzoyl]-sesquihydrate], the “Loss of clonogenic survival” value in data set [5] (0.01 μmolar) worked out at 17%; in data set [5] (0.05 μmolar), 44%; in data set [5] (0.1 μmolar), 57%; in data set [5] (0.5 μmolar), 82%; in data set [5] (1 μmolar), 88%; in data set [5] (5 μmolar), 93%.

As to `O=C(O)c1cc[c]([Hg+])cc1.[OH-]` [p-hydroxymercuribenzoate, reference compound], the “effect of added inhibitor on hydrolysis of the substrates in plasma” value in data set [3] (addition of the non-specific inhibitor of GGH and other cysteine proteases) is on record as “complete inhibition of hydrolysis”.

With `C/C=C(/C)C(=O)O[C@H]1C(C)=C2[C@H]([C@@H]1OC(=O)CCCCCCC)[C@@](C)(OC(C)=O)C[C@H](OC(=O)CCC)[C@@]1(O)[C@H]2OC(=O)[C@@]1(C)O` [thapsigargin], the “LD50 (cytotoxic activity)” value in data set [1] was below 0.1 µM.

Take “N-L-γ-glutamyl-12-aminododecanoyl-8-0-debutanoyl Thapsigargin [12-ADT*Glu]”: the “LD50 (apoptotic death of prostate cancer cells)” value in data set [6] is on record as “approximately 50 nM”.
